The results in this text go back to patent publication US7550476B2, “Condensed polycyclic compounds” (Mitsubishi Tanabe Pharma Corporation, priority 2001, dated 2009).

Bounds are passed on as bounds.

Tested on in one series: not given
Assay: not given
Conditions: not given
With `COc1cc2c(cc1OC)C(c1ccccc1)N1CCN(Cc3ccccc3)CC1C2.Cl.Cl` (centres unmarked), the melting point is 198 to 203 °C (dec.).

On to `COc1cc2c(cc1OC)C(c1ccccc1)N1CCN(CSC)CC1C2.Cl.Cl` (centres unmarked), for which the melting point was 217 to 220 °C (dec.).

Regarding `COc1cc2c(cc1OC)C(c1ccccc1)N1CCN(CC(=O)O)CC1C2.Cl.Cl` (centres unmarked), the melting point was 214 to 217 °C (dec.).

Turning to `COc1cc2c(cc1OC)C(c1ccccc1)N1CCN(C(=O)c3ccccc3)CC1C2.Cl` (centres unmarked), the melting point is 229 to 233 °C (dec.). Still for that read-out and setting: for `COc1cc2cc(COC(C)=O)c(COC(C)=O)c(-c3ccnc(C4C(=O)CCCC4=O)c3)c2cc1OC` the value was 210 to 213 °C; for `COc1cc2cc(CO)c(CO)c(-c3ccnc(C4C(=O)CCCC4=O)c3)c2cc1OC`, over 220 °C; for `COc1cc2c(cc1OC)C(c1ccc(OC(C)C)cc1)N1CCNCC1C2.Cl.Cl` (centres unmarked), 180 to 185 °C (dec.).

For a further series, the system named is mouse (BDF1 strain, male). In words: Single-dose subcutaneous toxicity in mouse. The class given is in vivo. The conditions noted are these: single dose 100 mg/kg subcutaneously, n=3, checked for 1 day. Here is the method: Further, the compounds [I] and compounds [I-C] of the present invention have the merit of being less toxic, and highly safe as a medicine. For example, 8,9-dimethoxy-6-phenyl-1,3,4,6,11,11a-hexahydro-2H-pyrazino[1,2-b]-isoquinoline was subcutaneously administered to a mouse (BDF1 strain, male, n=3) in a single dose (100 mg/kg) and the progress was checked for 1 day.
Turning to `COc1cc2c(cc1OC)C(c1ccccc1)N1CCNCC1C2` (centres unmarked) [Compound A, 8,9-dimethoxy-6-phenyl-1,3,4,6,11,11a-hexahydro-2H-pyrazino[1,2-b]isoquinoline], the death result was “no death was observed”.

Broadly, the melting point is the temperature, or range, at which the solid turns liquid.
